Laboratory results published in US20240287138A1, “CYCLIC PEPTIDES FOR INHIBITING TNF RECEPTOR 1 ACTIVITY” (Merck Sharp & Dohme LLC, priority 2023, published 2024).
Numbered stars: 1 amine (or outer) side, 2 acyl side, 3 side chain; on linkers, the order of the positions; unused ones are H or OH. Bridge positions count the residues as written; N and C are the ends. Square brackets hold non-standard residues; d marks the D form. Peptide text beside a SMILES is read from it. * marks the point of attachment. Trp(βS-Me,7-OMe) = COc1cccc2c([C@H](C)[C@H](N)C(=O)O)c[nH]c12; X17 = Cc1[nH]c2ccccc2c1[C@H](C)[C@H](N[*:1])C(=O)[*:2]; Trp(7-Cl) = N[C@@H](Cc1c[nH]c2c(Cl)cccc12)C(=O)O; Ala(pyrimidin-5-yl) = N[C@@H](Cc1cncnc1)C(=O)O; Phe(4-CONH2) = NC(=O)c1ccc(C[C@H](N)C(=O)O)cc1; Phe(4-COOH) = N[C@@H](Cc1ccc(C(=O)O)cc1)C(=O)O; Trp(7-aza) = N[C@@H](Cc1c[nH]c2ncccc12)C(=O)O; Pip(5R-OH) = O=C(O)[C@@H]1CC[C@@H](O)CN1; X1 = O=C([C@@H]1CC[C@H](N[*:1])C1)[*:2]; Pip(4-aza) = O=C(O)[C@@H]1CNCCN1; 4Pal = N[C@@H](Cc1ccncc1)C(=O)O; NMeE = CN[C@@H](CCC(=O)O)C(=O)O; dHyp = O=C(O)[C@H]1C[C@H](O)CN1; NMehSer = CN[C@@H](CCO)C(=O)O; αMeS = C[C@](N)(CO)C(=O)O; Carboxymethyl = O=C(O)C*; Nle = CCCC[C@H](N)C(=O)O; Sar = CNCC(=O)O

Key:
human TNFR2 ECD protein = biological target: T1, human TNFR2 ECD protein (Homo sapiens, UniProt P20333); test: SPR off-target binding (selectivity) to human TNFR2 ECD
T1 construct: HRV 3C protease cleavage site (C); 6His (C, cleaved yes); made in house; host or cells: Sf21 insect cells (baculovirus), secreted
T1 sequence (P20333 23-257): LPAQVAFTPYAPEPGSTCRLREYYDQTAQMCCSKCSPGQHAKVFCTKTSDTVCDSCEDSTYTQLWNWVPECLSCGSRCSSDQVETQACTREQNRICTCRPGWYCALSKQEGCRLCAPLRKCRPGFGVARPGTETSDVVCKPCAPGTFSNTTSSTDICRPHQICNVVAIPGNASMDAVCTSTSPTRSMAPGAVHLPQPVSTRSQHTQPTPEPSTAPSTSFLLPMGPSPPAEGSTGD
Procedure: (§1) B. Procedure for Binding Affinity and Selectivity measured by SPR
(§2) Affinity and selectivity for hTNFR1 and TNFR2 was determined using SPR. Human TNFR1 or TNFR2 genes (extracellular domain only) were synthesized with a C-terminal Avi-tag, HRV 3C protease cleavage site followed by a 6His-tag for affinity purification. The final gene product was cloned into pBAC™-1 vector (Millipore Sigma) for expression testing in insect cells. Constructs were transfected into Sf21 cells for baculovirus generation followed by protein expression analysis in Sf21 and Tni cell lines. Large scale expression in Sf21 cells was performed using baculovirus infected insect cells (BIICs) infected at a MOI=2.0 grown for 72 h. Target proteins secreted into the media were harvested via centrifugation and concentrated using diafiltration. TNFR was purified by immobilized metal ion affinity chromatography (IMAC) using a Ni-Sepharose HisTrap™ column (Cytiva™). Isolated TNFR had His tag removed using HRV 3C protease followed by additional purification using Ni-NTA chromatography. Biotinylation was performed on Ni-NTA flow-through fractions concentrated to 45 μM and treated with BirA ligase (1:100, μg/μg ratio) in 50 mM Tris pH 7.5, 150 mM NaCl, 50 μM biotin, 10 mM magnesium acetate, 10 mM ATP at 4° C. for 20 h. Final purification of biotin-TNFR and buffer exchange into 20 mM HEPES pH 7.5, 150 mM NaCl was performed using a HiLoad® Superdex® 200 26/60 column (Cytiva™). Highly purified protein was aliquoted and stored at −80° C.
(§3) The SPR assay uses a Cytiva™ 8K or 8K+ biosensor instrument to measure the kinetics of peptide analytes binding to captured human TNFR1 extracellular domain (ECD) protein; peptide analytes are also evaluated for any off-target binding to human TNFR2 ECD protein in parallel. Recombinant human TNFR1 ECD and human TNFR2 ECD proteins, biotinylated via engineered C-terminal avi-tags, are immobilized to a regenerable streptavidin biosensor chip surface (Cytiva™ Biotin CAPture kit, Series S; cat. #28920234). Peptide analytes binding to immobilized human TNFR1 ECD protein and their subsequent dissociation are conducted in a buffer of 10 mM HEPES pH 7.4, 150 mM NaCl, 3 mM EDTA, 0.05% P20,2% DMSO under laminar flow conditions and measured in response units (RU), which are directly proportional to the accumulated mass on the surface of the biosensor chip; the biosensor chip surface is regenerated via Cytiva™ proprietary methods between the evaluation of each peptide analyte. […] The SPR assay determines the association and dissociation rate constants, kon and koff, for each peptide analyte and, from these values, calculates the binding affinity, […] reported in Table 2.

[1] = biological target: T2, TNFα-induced NF-κB signal transduction pathway (TNFR1 signaling) in THP-1 cells (Homo sapiens, UniProt P19438); test: THP-1 Lucia NF-κB reporter cell assay, inhibition of TNFα-induced NF-κB signaling; format: cell-based; settings: THP-1 NF-κB Lucia reporter cells, 10 ng/mL TNFα, 16-18 h, secreted luciferase; read-out: THP-1 IC50
T2 sequence (P19438 30-455): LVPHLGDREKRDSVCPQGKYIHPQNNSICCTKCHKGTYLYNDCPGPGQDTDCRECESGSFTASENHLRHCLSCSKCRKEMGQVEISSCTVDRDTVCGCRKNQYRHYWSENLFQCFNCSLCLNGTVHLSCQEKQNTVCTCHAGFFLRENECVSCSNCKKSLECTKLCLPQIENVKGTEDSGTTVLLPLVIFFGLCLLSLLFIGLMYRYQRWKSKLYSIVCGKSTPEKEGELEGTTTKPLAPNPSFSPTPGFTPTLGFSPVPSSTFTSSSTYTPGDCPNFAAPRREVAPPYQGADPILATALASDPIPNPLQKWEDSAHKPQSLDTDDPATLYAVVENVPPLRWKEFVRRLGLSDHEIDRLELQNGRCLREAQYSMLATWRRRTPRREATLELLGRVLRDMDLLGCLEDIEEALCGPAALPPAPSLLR
In short: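 Inhibition of TNFR1-driven NF-κB activation was measured as luminescence of secreted reporter luciferase following overnight (16-18 h) stimulation with 10 ng/mL TNFα.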

[2] = biological target: T3, human TNFR1 extracellular domain (ECD) protein (Homo sapiens, UniProt P19438); test: SPR binding affinity to captured human TNFR1 ECD
T3 construct: HRV 3C protease cleavage site (C); 6His (C, cleaved yes); made in house; host or cells: Sf21 insect cells (baculovirus), secreted
T3 sequence (P19438 30-211): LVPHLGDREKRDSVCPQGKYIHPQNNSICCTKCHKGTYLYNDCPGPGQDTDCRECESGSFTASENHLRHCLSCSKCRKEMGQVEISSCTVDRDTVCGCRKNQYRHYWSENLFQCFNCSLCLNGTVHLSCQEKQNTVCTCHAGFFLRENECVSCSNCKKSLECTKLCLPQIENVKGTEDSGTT
Procedure: as §1, §2, §3

| SMILES | Kd (human TNFR2 ECD protein) | IC50 [1] | Kd [2] |
| --- | --- | --- | --- |
| CCCC[C@@H]1NC(=O)[C@@H]2CC[C@@H](C2)NC(=O)[C@H]([C@@H](C)c2c[nH]c3c(OC)cccc23)NC(=O)CN(C)C(=O)[C@H](Cc2ccc(O)cc2)NC(=O)[C@H](Cc2ccc(C(N)=O)cc2)NC(=O)[C@](C)(CO)NC(=O)[C@H](Cc2c[nH]c3c(Cl)cccc23)NC(=O)[C@H](Cc2ccc(C(=O)O)cc2)NC(=O)[C@H](CC(N)=O)NC(=O)[C@H]2C[C@H](OCC(=O)O)CN2C(=O)[C@H](Cc2c[nH]c3ccccc23)NC(=O)[C@@H]2CNCCN2C(=O)[C@H](Cc2ccncc2)NC1=O [SEQ ID NO. 95] (cyclo([4Pal][Pip(4-aza)]W[dHyp](Carboxymethyl)N[Phe(4-COOH)][Trp(7-Cl)][αMeS][Phe(4-CONH2)]Y[Sar][Trp(βS-Me,7-OMe)][X1][Nle])) | > 1000 nM | 0.7 nM | 0.2 nM |
| CCCC[C@@H]1NC(=O)CSC[C@@H](C(N)=O)NC(=O)[C@H]([C@@H](C)c2c(C)[nH]c3ccccc23)NC(=O)CN(C)C(=O)[C@H](Cc2ccc(O)cc2)NC(=O)[C@H](Cc2ccc(C(N)=O)cc2)NC(=O)[C@](C)(CO)NC(=O)[C@H](Cc2c[nH]c3c(Cl)cccc23)NC(=O)[C@H](Cc2ccncc2)NC(=O)[C@H](CC(N)=O)NC(=O)[C@H](CCC(=O)O)N(C)C(=O)[C@H](Cc2c[nH]c3ccccc23)NC(=O)[C@@H]2CC[C@@H](O)CN2C(=O)[C@H](Cc2ccncc2)NC1=O [SEQ ID NO. 97] ({CH2CO}-[Nle][4Pal][Pip(5R-OH)]W[NMeE]N[4Pal][Trp(7-Cl)][αMeS][Phe(4-CONH2)]Y[Sar][X17]C-NH2; thioether N-14) | > 1000 nM | 0.9 nM | 0.08 nM |
| CCCC[C@@H]1NC(=O)CSC[C@@H](C(N)=O)NC(=O)[C@H]([C@@H](C)c2c[nH]c3c(OC)cccc23)NC(=O)CN(C)C(=O)[C@H](Cc2ccc(O)cc2)NC(=O)[C@H](Cc2ccc(C(=O)O)cc2)NC(=O)[C@](C)(CO)NC(=O)[C@H](Cc2c[nH]c3c(Cl)cccc23)NC(=O)[C@H](Cc2ccncc2)NC(=O)[C@H](CC(N)=O)NC(=O)[C@H](CCC(=O)O)N(C)C(=O)[C@H](Cc2c[nH]c3ncccc23)NC(=O)[C@H](CCOC)N(C)C(=O)[C@H](Cc2ccncc2)NC1=O [SEQ ID NO. 99] ({CH2CO}-[Nle][4Pal][NMehSer](Me)[Trp(7-aza)][NMeE]N[4Pal][Trp(7-Cl)][αMeS][Phe(4-COOH)]Y[Sar][Trp(βS-Me,7-OMe)]C-NH2; thioether N-14) | > 1000 nM | 3.7 nM | 0.15 nM |
| CCCC[C@@H]1NC(=O)[C@@H]2CC[C@@H](C2)NC(=O)[C@H]([C@@H](C)c2c[nH]c3c(OC)cccc23)NC(=O)CN(C)C(=O)[C@H](Cc2ccc(O)cc2)NC(=O)[C@H](Cc2ccc(C(N)=O)cc2)NC(=O)[C@](C)(CO)NC(=O)[C@H](Cc2c[nH]c3c(Cl)cccc23)NC(=O)[C@H](Cc2cncnc2)NC(=O)[C@H](CC(N)=O)NC(=O)[C@H](CCC(=O)O)N(C)C(=O)[C@H](Cc2c[nH]c3ccccc23)NC(=O)[C@@H]2CC[C@@H](O)CN2C(=O)[C@H](Cc2ccncc2)NC1=O [SEQ ID NO. 102] (cyclo([4Pal][Pip(5R-OH)]W[NMeE]N[Ala(pyrimidin-5-yl)][Trp(7-Cl)][αMeS][Phe(4-CONH2)]Y[Sar][Trp(βS-Me,7-OMe)][X1][Nle])) | > 1000 nM | 0.5 nM | 0.2 nM |
